Target: T1, GST-FAK (N-terminal GST fusion with truncated human FAK (376-1052 (end) amino acids)) (Homo sapiens, UniProt Q05397)
T1 construct: truncated human FAK (376-1052 (end) amino acids)
Experiment: Biochemical enzyme assay for FAK activity (Caliper LC3000 mobility shift)
Details: Table 3; 100 uM ATP; read-out: FAK IC50
Method: 1. Biochemical Enzyme Assays for FAK Activity
The FAK assays described here are performed on two Caliper Life Sciences systems, the LC3000 and the EZ Reader II. These provide data on enzyme activity via measurement of the relative amounts of phosphorylated or unphosphorylated fluorescently labelled substrate peptide at the end of an enzymatic reaction. These different states of peptide are resolved by applying a potential difference across the sample. The presence of the charged phosphate group on the product (as opposed to the substrate) causes different peptide mobility between the two peptides. This is visualized by excitation of the fluorescent label on the substrate and product peptides and represented as peaks within the analysis software.
In order to measure inhibitor activity of FAK, inhibitors in the Caliper Life Sciences LC3000, a TTP Mosquito liquid handling instrument is used to place 0.25 ul of the appropriate concentration of inhibitor in 100% DMSO (for a dose response curve calculation) into each well of a 384-well plate. To this reaction components are added to a final volume of 25 ul: • 0.067 ng/ul GST-FAK (N-terminal GST fusion with truncated human FAK (376-1052 (end) amino acids)) • 100 uM ATP • 1 mM DTT • 1 mM MgCl2 • 1 uM substrate peptide (sequence FITC-KGWMEDYDYVHLQGKK-(CONH2)SEQ ID NO: 1)) • 1 mM FERM peptide (sequence NH2-GATQSFIIR-COOH (SEQ ID NO: 2)) • 100 mM HEPES pH 7.5 • 0.015% Brij-35
The reaction is incubated for 90 min at 25 C, and then stopped by the addition of 70 ul of Stop buffer (100 mM HEPES pH 7.5, 0.015% Brij-35, 10 mM EDTA).
The plate is read on a Caliper LC 3000 in an Off-Chip mobility shift assay format, using the following parameters for a 12-sipper chip: screening pressure—1.9 psi, upstream voltage—3000, downstream voltage—700. These conditions cause unphosphorylated substrate and phosphorylated product peptide to resolve as separate peaks allowing direct measurement of percentage of conversion of substrate to product. The percent conversion can be plotted against concentration of inhibitor to produce a sigmoid dose response curve, from which an IC50 can be calculated using XLFit for Microsoft Excel.

T1 sequence (Q05397 376-1052): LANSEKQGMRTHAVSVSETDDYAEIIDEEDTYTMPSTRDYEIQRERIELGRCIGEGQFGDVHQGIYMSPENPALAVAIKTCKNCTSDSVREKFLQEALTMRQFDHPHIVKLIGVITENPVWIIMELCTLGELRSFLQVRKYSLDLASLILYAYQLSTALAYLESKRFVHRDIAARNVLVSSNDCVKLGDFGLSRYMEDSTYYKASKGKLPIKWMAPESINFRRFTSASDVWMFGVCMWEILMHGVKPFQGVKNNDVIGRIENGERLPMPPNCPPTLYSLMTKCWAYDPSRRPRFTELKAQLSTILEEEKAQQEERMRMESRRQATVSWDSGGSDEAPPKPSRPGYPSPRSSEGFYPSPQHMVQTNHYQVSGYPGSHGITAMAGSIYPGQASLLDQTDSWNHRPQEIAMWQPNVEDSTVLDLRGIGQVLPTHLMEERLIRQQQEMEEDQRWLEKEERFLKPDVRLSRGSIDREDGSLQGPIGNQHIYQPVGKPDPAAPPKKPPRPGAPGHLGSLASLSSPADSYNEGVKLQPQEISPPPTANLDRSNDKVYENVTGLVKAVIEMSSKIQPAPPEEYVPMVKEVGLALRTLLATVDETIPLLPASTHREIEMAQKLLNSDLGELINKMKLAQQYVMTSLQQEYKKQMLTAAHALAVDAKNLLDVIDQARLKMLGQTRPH

Row | Structure (SMILES) | IC50
1 | Nc1ncccc1-c1nccc(NCc2ncccc2C(F)(F)F)n1 [Compound 100, 2-(2-Aminopyridin-3-yl)-N-{[3-(trifluoromethyl)pyridin-2-yl]methyl}pyrimidin-4-amine] | 1 to 10 µM
2 | Cc1ccc(CNc2ccnc(-c3cccnc3N)n2)c(F)c1 [Compound 101, 2-(2-Aminopyridin-3-yl)-N-(2-fluoro-4-methylbenzyl)pyrimidin-4-amine] | 1 to 10 µM
3 | Nc1ncccc1-c1nccc(NCc2cc(F)ccc2C(F)(F)F)n1 [Compound 102, 2-(2-Aminopyridin-3-yl)-N-[5-fluoro-2-(trifluoromethyl)benzyl]pyrimidin-4-amine] | 1 to 10 µM
4 | Nc1ncccc1-c1nccc(NCc2cnccc2C(F)(F)F)n1 [Compound 103, 2-(2-Aminopyridin-3-yl)-N-{[4-(trifluoromethyl)pyridin-3-yl]methyl}pyrimidin-4-amine] | 1 to 10 µM
5 | Nc1ncccc1-c1cccc(NCc2ccccc2C(F)(F)F)c1 [Compound 104, 3-(3-{[2-(Trifluoromethyl)benzyl]amino}phenyl)pyridin-2-amine] | > 10 µM
6 | Nc1ncccc1-c1cccc(NCc2ccccc2F)c1 [Compound 105, 3-{3-[(2-Fluorobenzyl)amino]phenyl}pyridin-2-amine] | > 10 µM
7 | Nc1ncccc1-c1cc(NCc2ccccc2F)ccn1 [Compound 106, N4-(2-Fluorobenzyl)-2,3′-bipyridine-2′,4-diamine] | > 10 µM
8 | Nc1ncccc1-c1nccc(NCc2ccc(Cl)cc2C(F)(F)F)n1 [Compound 109, 2-(2-Aminopyridin-3-yl)-N-[4-chloro-2-(trifluoromethyl)benzyl]pyrimidin-4-amine] | 0.1 to 1 µM
9 | Nc1ncccc1-c1nccc(NCc2c(F)cccc2C(F)(F)F)n1 [Compound 111, 2-(2-Aminopyridin-3-yl)-N-[2-fluoro-6-(trifluoromethyl)benzyl]pyrimidin-4-amine] | 1 to 10 µM
10 | Nc1ncccc1-c1cc(NCc2ccccc2C(F)(F)F)ccn1 [Compound 113, N4-[2-(trifluoromethyl)benzyl]-2,3′-bipyridine-2′,4-diamine] | 1 to 10 µM
11 | Nc1ncccc1-c1nccc(NC2CCOc3ccccc32)n1 (centres unmarked) [Compound 116, 2-(2-Aminopyridin-3-yl)-N-(3,4-dihydro-2H-chromen-4-yl)pyrimidin-4-amine] | > 10 µM
12 | Nc1ncccc1-c1nccc(NCc2cccc3nsnc23)n1 [Compound 117, 2-(2-Aminopyridin-3-yl)-N-(2,1,3-benzothiadiazol-4-ylmethyl)pyrimidin-4-amine] | 0.1 to 1 µM
13 | Nc1ncccc1-c1nccc(N2Cc3ccccc3C2=O)n1 [Compound 120, 2-[2-(2-Aminopyridin-3-yl)pyrimidin-4-yl]isoindolin-1-one] | > 10 µM
14 | Nc1ncccc1-c1nccc(NCc2cccnc2)n1 [Compound 121, 2-(2-Aminopyridin-3-yl)-N-(pyridin-3-ylmethyl)pyrimidin-4-amine] | > 10 µM
15 | Nc1ncccc1-c1nccc(NCc2cccc3c2OCO3)n1 [Compound 122, 2-(2-Aminopyridin-3-yl)-N-(1,3-benzodioxol-4-ylmethyl)pyrimidin-4-amine] | 0.1 to 1 µM
16 | Nc1ncccc1-c1nccc(NCc2ccncc2)n1 [Compound 128, 2-(2-Aminopyridin-3-yl)-N-(pyridin-4-ylmethyl)pyrimidin-4-amine] | > 10 µM
17 | FC(F)(F)c1cncc(-c2nccc(NCc3cccc4nsnc34)n2)c1 [Compound 133, N-(2,1,3-Benzothiadiazol-4-ylmethyl)-2-[5-(trifluoromethyl)pyridin-3-yl]pyrimidin-4-amine] | < 0.1 µM
18 | Nc1ncccc1-c1nccc(NCc2cccc3ccnn23)n1 [Compound 135, 2-(2-Aminopyridin-3-yl)-N-(pyrazolo[1,5-a]pyridin-7-ylmethyl)pyrimidin-4-amine] | > 10 µM
19 | Nc1ncc(C(F)(F)F)cc1-c1nccc(NCc2ccccc2C(F)(F)F)n1 [Compound 136, 2-[2-Amino-5-(trifluoromethyl)pyridin-3-yl]-N-[2-(trifluoromethyl)benzyl]pyrimidin-4-amine] | < 0.1 µM
20 | Nc1ncccc1-c1nccc(NCc2cccnc2C(F)(F)F)n1 [Compound 137, 2-(2-Aminopyridin-3-yl)-N-{[2-(trifluoromethyl)pyridin-3-yl]methyl}pyrimidin-4-amine] | 1 to 10 µM
21 | C[C@H](Nc1ccnc(-c2cccnc2N)n1)c1ccccc1C(F)(F)F [Compound 138, 2-(2-Aminopyridin-3-yl)-N-{(1S)-1-[2-(trifluoromethyl)phenyl]ethyl}pyrimidin-4-amine] | 1 to 10 µM
22 | c1ccc(CNc2ccnc(-c3cccnc3)n2)cc1 [Compound 139, N-Benzyl-2-pyridin-3-ylpyrimidin-4-amine] | > 10 µM
23 | Cc1cc(NCc2cccc(C(F)(F)F)c2)nc(-c2cccnc2)n1 [Compound 140, 6-Methyl-2-pyridin-3-yl-N-[3-(trifluoromethyl)benzyl]pyrimidin-4-amine] | > 10 µM
24 | Cc1cc(NCc2ccccc2)nc(-c2cccnc2)n1 [Compound 141, N-Benzyl-6-methyl-2-pyridin-3-ylpyrimidin-4-amine] | > 10 µM
25 | Cc1cc(NCc2cccc(F)c2)nc(-c2cccnc2)n1 [Compound 142, N-(3-Fluorobenzyl)-6-methyl-2-pyridin-3-ylpyrimidin-4-amine] | > 10 µM
26 | CNCC(Nc1ccnc(-c2cccnc2)n1)c1ccccc1 (centres unmarked) [Compound 143, N2-Methyl-1-phenyl-N1-(2-pyridin-3-ylpyrimidin-4-yl)ethane-1,2-diamine] | > 10 µM
27 | CNCC(Nc1ccnc(-c2cccnc2N)n1)c1ccccc1 (centres unmarked) [Compound 144, N1-[2-(2-Aminopyridin-3-yl)pyrimidin-4-yl]-N2-methyl-1-phenylethane-1,2-diamine] | > 10 µM
28 | CNC[C@@H](Nc1ccnc(-c2cccnc2N)n1)c1cccc(F)c1 [Compound 145, (S)-N1-[2-(2-Amino-pyridin-3-yl)-pyrimidin-4-yl]-1-(3-fluoro-phenyl)-N2-methyl-ethane-1,2-diamine] | > 10 µM
29 | CNC[C@@H](Nc1ccnc(-c2cccnc2N)n1)c1ccccc1 [Compound 146, (S)-N1-[2-(2-Amino-pyridin-3-yl)-pyrimidin-4-yl]-N2-methyl-1-phenyl-ethane-1,2-diamine] | > 10 µM
30 | CNC[C@H](Nc1ccnc(-c2cccnc2N)n1)c1ccccc1 [Compound 147, (R)-N1-[2-(2-Amino-pyridin-3-yl)-pyrimidin-4-yl]-N2-methyl-1-phenyl-ethane-1,2-diamine] | > 10 µM

Same assay, conditions: Table 4; 100 uM ATP; read-out: IC50 FAK

Row | Structure (SMILES) | IC50
31 | N#Cc1cncc(-c2nccc(NCc3ccc(F)cc3F)n2)c1 [Compound 180, 5-[4-[(2,4-difluorophenyl)methylamino]pyrimidin-2-yl]pyridine-3-carbonitrile] | 0.1 to 1 µM
32 | CS(=O)(=O)n1cc(Nc2ccnc(-c3cncc(C(F)(F)F)c3)n2)cn1 [Compound 182, N-(1-methylsulfonylpyrazol-4-yl)-2-[5-(trifluoromethyl)-3-pyridyl]pyrimidin-4-amine] | 0.1 to 1 µM

Same assay, conditions: Table 5; 100 uM ATP; read-out: FAK IC50

Row | Structure (SMILES) | IC50
33 | Cc1ccccc1CNc1ccnc(-c2cncc(C(F)(F)F)c2)n1 [Compound 186, (2-Methyl-benzyl)-[2-(5-trifluoromethyl-pyridin-3-yl)-pyrimidin-4-yl]-amine] | 0.1 to 1 µM
34 | COc1cncc(-c2nccc(NCCc3ccccc3)n2)c1 [Compound 187, [2-(5-Methoxy-pyridin-3-yl)-pyrimidin-4-yl]-phenethyl-amine] | > 10 µM
35 | CC(=O)NCCNC(=O)c1cc(NCc2ncccc2F)nc(-c2cncc(C(F)(F)F)c2)n1 [Compound 189, 6-[(3-Fluoro-pyridin-2-ylmethyl)-amino]-2-(5-trifluoromethyl-pyridin-3-yl)-pyrimidine-4-carboxylic acid (2-acetylamino-ethyl)-amide] | 0.1 to 1 µM
36 | NC(=O)CNC(=O)c1cc(NCc2ncccc2F)nc(-c2cncc(C(F)(F)F)c2)n1 [Compound 190, 6-[(3-Fluoro-pyridin-2-ylmethyl)-amino]-2-(5-trifluoromethyl-pyridin-3-yl)-pyrimidine-4-carboxylic acid carbamoylmethyl-amide] | 0.1 to 1 µM
37 | FC(F)(F)c1cccc(CCNc2ccnc(-c3cncc(C(F)(F)F)c3)n2)c1 [Compound 191, [2-(3-Trifluoromethyl-phenyl)-ethyl]-[2-(5-trifluoromethyl-pyridin-3-yl)-pyrimidin-4-yl]-amine] | 1 to 10 µM
38 | COc1cncc(-c2nccc(NCCc3ccc(F)cc3)n2)c1 [Compound 192, [2-(4-Fluoro-phenyl)-ethyl]-[2-(5-methoxy-pyridin-3-yl)-pyrimidin-4-yl]-amine] | 1 to 10 µM
